# According to patent publication US20230165861A1, “USE FOR PROTECTING OR MITIGATING RADIATION DAMAGE, AND FOR PREVENTING OR TREATING PULMONARY FIBROSIS” (KOREA INSTITUTE OF RADIOLOGICAL & MEDICAL SCIENCES, priority 2017, published 2023):
# What was measured:
# [1] = tested on: lung tissue of a mouse animal model irradiated with 90 Gy; experiment: Inhibition test on tissue damage caused by radiation (H&E staining of lung tissue); assay type: in vivo; conditions: 10 mg/kg intraperitoneally one hour before 90 Gy chest irradiation; two weeks after irradiation; compared to non-treatment group (IR)
# Method: The tissue of a mouse was fixed with 10% neutral formalin for one day, and a paraffin section was made. In order to remove the paraffin around the tissue, the tissue was allowed to react with a xylene solution and 95%, 90%, and 70% ethanol solutions in sequential order for 5 minutes each, and then immersed in a hematoxylin solution for 1 minute to stain the nuclei and then washed under running water for 10 minutes. Thereafter, the cytoplasm was stained by immersing the tissue in an eosin solution for 30 seconds. Thereafter, the tissue was immersed in 50%, 70%, 90%, and 95% ethanol solutions, and a xylene solution in sequential order, followed by dropping one drop of a mounting solution. Then, the tissue was covered with a cover slide and observed under a microscope (Carl Zeiss Vision). The lung tissue of a mouse animal model, in which the chest of the mouse was irradiated in a size of 3 mm with an intensity of 90 Gy, was fixed with 10% formalin, and a paraffin section was made. Thereafter, tissue inflammatory response and fibrosis were identified by using a hematoxylin and eosin staining method. Upon observing the tissue with this staining method, the cell nucleus is observed in blue and the cytoplasm in pink. One hour before irradiating the mouse animal model, 10 mg/kg of Dacomitinib was administered intraperitoneally. […]
# [2] = tested on: γH2AX in irradiated lung tissue; experiment: Inhibition test on DNA damage caused by radiation (γH2AX immunostaining); assay type: in vivo, mouse; conditions: 10 mg/kg one hour prior to 90 Gy lung irradiation; compared to non-treatment group (IR)
# Method: The tissue of a mouse was fixed with 10% neutral formalin for one day, and a paraffin section was made. In order to remove paraffin around the tissue, the tissue was immersed in a xylene solution and 100%, 95%, 90%, and 70% ethanol solutions in sequential order. For the antigen activation of the tissue, the tissue was immersed in a 0.1 M citric acid solution (pH 6.0) and boiled for 30 minutes, and then reacted with 3% hydrogen peroxide for 15 minutes. The tissue was allowed to react with γH2AX (abcam), which was diluted in 1:200 ratio in a PBS solution (including phosphate based saline buffer and 0.1% triton x-100), at 4° C. for 16 hours. After washing the tissue with PBS, a secondary antibody conjugated with biotin was diluted in 1:200 ratio and reacted with the tissue at room temperature for 30 minutes. After reacting the tissue with ABC (Avidin biotin complex) at room temperature for 30 minutes and color-developing 3,3′-DAB (3,3′-diaminobenzidine), the tissue was counterstained with hematoxylin. Subsequently, the tissue was immersed in 50%, 70%, 90%, 95%, and 100% ethanol solutions and a xylene solution in sequential order, followed by dropping one drop of a mounting solution. Then, the tissue was covered with a cover slide and observed under a microscope (Carl Zeiss Vision). […]
# [3] = tested on: vascular wall in the lung tissue of a mouse animal model irradiated with 90 Gy; experiment: Inhibition test on in vivo vascular damage caused by radiation (vascular wall thickness, H&E staining); conditions: 10 mg/kg intraperitoneally one hour before 90 Gy chest irradiation; two weeks after irradiation; compared to non-treatment group (IR)
# Method: The tissue of a mouse was fixed with 10% neutral formalin for one day, and a paraffin section was made. In order to remove the paraffin around the tissue, the tissue was allowed to react with a xylene solution and 95%, 90%, and 70% ethanol solutions in sequential order for 5 minutes each, and then immersed in a hematoxylin solution for 1 minute to stain the nuclei and then washed under running water for 10 minutes. Thereafter, the cytoplasm was stained by immersing the tissue in an eosin solution for 30 seconds. Thereafter, the tissue was immersed in 50%, 70%, 90%, and 95% ethanol solutions, and a xylene solution in sequential order, followed by dropping one drop of a mounting solution. Then, the tissue was covered with a cover slide and observed under a microscope (Carl Zeiss Vision). The lung tissue of a mouse animal model, in which the chest of the mouse was irradiated in a size of 3 mm with an intensity of 90 Gy, was fixed with 10% formalin, and a paraffin section was made. Thereafter, the tissue was stained with hematoxylin and eosin. Upon observing the tissue with this staining method, the cell nucleus is observed in blue and the cytoplasm in pink. One hour before irradiating the mouse animal model, 10 mg/kg of Dacomitinib was administered intraperitoneally. […]
# [4] = tested on: pulmonary vascular endothelial cells of irradiated lung; experiment: Pulmonary fibrosis inhibition test in experimental animal model (trichrome staining of collagen); assay type: in vivo, C57BL/6 mouse; conditions: 10 mg/kg intraperitoneally one hour before 90 Gy lung irradiation; inner wall of the aorta of lung tissue; compared to irradiation group (IR)
# Method: The tissue of a mouse was fixed with 10% neutral formalin for one day, and a paraffin section was made. In order to remove paraffin around the tissue, the tissue was allowed to react with a xylene solution and 95%, 90%, and 70% ethanol solutions in sequential order for 5 minutes each. For the antigen activation of the tissue, the tissue was immersed in a 0.1 M citric acid solution (pH 6.0) and then boiled for 20 minutes. Subsequently, the tissue was allowed to react with a Bouin's solution for 1 minute, Weigert's hematoxylin for 10 minutes, phoshotunstic/phosphomolydic acid for 10 minutes, aniline blue for 5 minutes, and 1% acetic acid for 1 minute in sequential order. Thereafter, a dehydration process was performed, and then the tissue was covered with a cover glass and observed under a microscope (Carl Zeiss Vision). In order to observe whether a phenomenon of pulmonary fibrosis of vascular endothelial cells is shown as the symptom of pulmonary fibrosis occurred after radiotherapy, the site of the lung of a C57BL/6 mouse was topically irradiated with an intensity of 90 Gy. After excising the lung from the mouse, the cross-section of the aorta of the lung tissue was stained by a trichrome staining method in order to identify collagen which is a protein shown upon fibrosis of the pulmonary vascular endothelial cells. […]
# [5] = tested on: lung tissue of bleomycin-injected mouse; experiment: Inhibition test on tissue damage caused by bleomycin (bleomycin-induced pulmonary fibrosis model); assay type: in vivo; conditions: 10 mg/kg intraperitoneally one hour before 1.25 U/kg bleomycin into the airway; three weeks after injection; compared to non-treatment group
# Method: The tissue of a mouse was fixed with 10% neutral formalin for one day, and a paraffin section was made. In order to remove the paraffin around the tissue, the tissue was allowed to react with a xylene solution and 95%, 90%, and 70% ethanol solutions in sequential order for 5 minutes each, and then immersed in a hematoxylin solution for 1 minute to stain the nuclei and then washed under running water for 10 minutes. Thereafter, the cytoplasm was stained by immersing the tissue in an eosin solution for 30 seconds. Thereafter, the tissue was immersed in 50%, 70%, 90%, and 95% ethanol solutions, and a xylene solution in sequential order, followed by dropping one drop of a mounting solution. Then, the tissue was covered with a cover slide and observed under a microscope (Carl Zeiss Vision). The tissue of a mouse was fixed with 10% neutral formalin for one day, and a paraffin section was made. In order to remove paraffin around the tissue, the tissue was allowed to react with a xylene solution and 95%, 90%, and 70% ethanol solutions in sequential order for 5 minutes each. For the antigen activation of the tissue, the tissue was immersed in a 0.1 M citric acid solution (pH 6.0) and then boiled for 20 minutes. […]
smiles,measurement,setting,value
"COc1cc2ncnc(Nc3ccc(F)c(Cl)c3)c2cc1NC(=O)/C=C/CN1CCCCC1 [Dacomitinib, (2E)-N-{4-[(3-chloro-4-fluorophenyl)amino]-7-methoxy-6-quinazolinyl}-4-(1-piperidinyl)-2-but enamide]",infiltration of the inflammatory cells and the fibrotic matrix around blood vessels,[1],remarkably reduced
same,expression of γH2AX according to the DNA damage,[2],remarkably reduced
same,thickness of the vascular wall,[3],remarkably reduced
same,"blue sites of collagen (protein associated with pulmonary fibrosis), trichrome staining",[4],remarkably reduced
same,"pathological characteristics such as infiltration of inflammatory cells, fibrous nodules, interstitial thickening",[5],remarkably inhibited
